Patent publication US10253002B2, “Compounds and methods of treating infections” (Neoculi Pty Ltd., priority 2013, dated 2019)

Key:
MRSA = assay: Broth microdilution MIC, Example 7 (NCL812 and analogues); assay type: cell-based, Staphylococcus aureus
Procedure, shortened: (§1)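 Duplicates per isolate, repeated a third time if >one two-fold dilution apart. MIC50, MIC20 and range calculated per bacterial group.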

VRE = assay: as above; assay type: cell-based, Enterococcus spp.
Procedure, shortened: as §1

[1] = Bioassay ranking of the analogues tested; conditions: M + R (MRSA and VRE combined)
S. pneumoniae isolates [2] = assay: MBC, Example 5; assay type: cell-based, Streptococcus pneumoniae
Procedure: (§2) [Micro-broth dilutions and 96 well trays are prepared by the following method: 90 μL of 4% LHB:CAMHB is aliquotted into all wells using a multichannel pipette. 90 μL of working antimicrobial stocks were no serial diluted down the tray by a 1:2 dilution. Negative broth controls and dilution control were taken into account when planning the set up of a 96 well tray.] 10 μL of bacterial suspension was then added to the appropriate wells in the 96 well tray. Appropriate positive (no antimicrobial), negative (no antimicrobial or bacteria) and negative dilution (a serial dilution control of antimicrobial and broth) controls were included in each assay. […] The MBC was determined by a 99.95% inhibition of S. pneumoniae, taking into account the dilution factor. MICs and MBCs were determined in quadruplicate and the mode was taken as the representative value. The MIC50, MIC90 and MIC range and MBC50, MBC90 and MBC range were determined according to CLSI standards. The MIC50 and MIC90, or MBC50 and MBC90, are defined by the lowest concentrations which, when all the MICs and MBCs of the isolates are arranged from lowest to highest, inhibited the 50th and 90th percentile of the total amount of isolates, respectively.

[3] = Visual analysis of solubility in diluents and media, Example 5; assay type: physicochemical
S. pneumoniae isolates [4] = assay: Micro-broth dilution MIC, Example 5; assay type: cell-based, Streptococcus pneumoniae
Procedure: For all in vitro assays, fresh pneumococcal isolates were grown overnight (O/N) on horse blood agar (HBA) plates (39 g/L Columbia blood agar base [Oxoid] 5% [v/v] defribinated horse blood [Oxoid] at 37° C. with 5% supplemented CO2). Mueller-Hinton blood agar with 5% defibrinated sheep blood (MHSBA Roseworthy Media and Blood Service) was used for disk diffusion analysis as directed by Clinical Laboratory Standards Institute (CLSI) standards. Pneumococci were routinely grown in broth consisting of 4% lysed horse blood (LHB) with Cation Adjusted Mueller Hinton Broth (CAHMB, [Difco]) at 37° C. with 5% supplemented CO2. […] Isolates were stored in HSB at −80° C.
as §2

Escherichia coli = assay: Broth microdilution MIC, Example 7 (NCL812 and analogues); assay type: cell-based; conditions: 24 hours; 1st and 2nd replicate rows
S. pneumoniae strain D39 = assay: MBC time kill studies (relative MBC at time points); assay type: cell-based, Streptococcus pneumoniae
From the text: MBC kill kinetics assays involved the preparation of three 96 well microtitre trays.

Pseudomonas aeruginosa = assay: Broth microdilution MIC, Example 7 (NCL812 and analogues); assay type: cell-based; conditions: 24 hours; 1st and 2nd replicate rows
[5] = system: lipid synthesis in S. aureus ATCC 29213; assay: Macromolecular synthesis assay: lipid synthesis ([3H] glycerol); assay type: cell-based, Staphylococcus aureus
Procedure: Cells were grown at 35° C. overnight on Trypticase Soy agar. A colony from the plate was used to inoculate 10 ml of Mueller Hinton broth II (MHBII), and the culture was grown to early exponential growth phase (OD600==0.2 to 0.3) while incubating in a shaker at 35° C. and 200 rpm.
Bacterial cells were grown to early exponential growth phase in MHBII broth and added to 1.5 mL eppendorf tubes (in triplicate) containing various concentrations of test compound or control antibiotics as described above. Following a 5 min incubation at room temperature, [^3H] glycerol was added at 0.5 μCi per reaction.
Reactions were allowed to proceed at room temperature for 15 min and then stopped through the addition of 375 μL chloroform/methanol (1:2) followed by vortexing for 20 seconds after each addition. Chloroform (125 μL) was then added to each reaction, vortexed, followed by the addition of 125 μL dH2O and vortexing. Reactions were centrifuged at 13,000 rpm for 10 min, and then 150 μL of the organic phase was transferred to a scintillation vial and allowed to dry in a fume hood for at least 1 hr. Samples were then counted via liquid scintillation counting.

[6] = system: ATP release from S. aureus ATCC 29213; assay: ATP release assay (CellTiter-Glo); assay type: cell-based, Staphylococcus aureus; conditions: positive control; 8 fold the MIC (256 μg/mL); 30 min exposure
Procedure: The CellTiter-Glo Luminescent Cell Viability Assay (Promega) was utilized to measure the leakage of ATP from bacteria. […] The negative control received 2% DMSO, which represented the final DMSO concentration in each assay. After a 30 min exposure to drug, cells were sedimented by centrifugation and the supernatant was analyzed for the presence of ATP. Results were expressed as ATP concentration released to the medium (μM).

[7] = isolate WCH158, Table 22, CAMHB diluent for NCL062

C/C(=N\NC(=N)N/N=C(\C)c1ccc(Cl)cc1)c1ccc(Cl)cc1.Cl [NCL062]
activity against MRSA among analogues (MRSA; MIC testing, two MRSA strains): greatest activity
MRSA (MRSA; bioassay ranking, MRSA): 3 µg/mL
MIC (μg/ml) at 24 hours, MRSA 1 (MRSA; isolate MRSA 1, 24 hours, 1st and 2nd replicate rows): 2 µg/mL
MIC (μg/ml) at 24 hours, MRSA 2 (MRSA; isolate MRSA 2, 24 hours, 1st and 2nd replicate rows): 4 µg/mL
activity against VRE among analogues (VRE; MIC testing, two VRE strains): greatest activity
VRE (VRE; bioassay ranking, VRE): 1.5 µg/mL
MIC (μg/ml) at 24 hours, VRE 1 (VRE; isolate VRE 1, 24 hours, 1st and 2nd replicate rows): 2 µg/mL
MIC (μg/ml) at 24 hours, VRE 2 (VRE; isolate VRE 2, 24 hours, 1st and 2nd replicate rows): 1 µg/mL
M + R [1]: 2.25 µg/mL
MBC (S. pneumoniae isolates [2]; A66.1): 32 µg/mL
MBC (S. pneumoniae isolates [2]; D39): 4 µg/mL
MBC (S. pneumoniae isolates [2]; EF3030): 16 µg/mL
MBC (S. pneumoniae isolates [2]; L82016): 32 µg/mL
MBC (S. pneumoniae isolates [2]; P9): 16 µg/mL
MBC (S. pneumoniae isolates [2]; P21): 4 µg/mL
MBC (S. pneumoniae isolates [2]; TIGR4): 8 µg/mL
MBC (S. pneumoniae isolates [2]; WCH16): 32 µg/mL
MBC (S. pneumoniae isolates [2]; WCH43): 4 µg/mL
MBC (S. pneumoniae isolates [2]; WCH46): 32 µg/mL
MBC (S. pneumoniae isolates [2]; WCH57): 8 µg/mL
MBC (S. pneumoniae isolates [2]; WCH77): 8 µg/mL
MBC (S. pneumoniae isolates [2]; WCH86): 8 µg/mL
MBC (S. pneumoniae isolates [2]; WCH89): 4 µg/mL
MBC (S. pneumoniae isolates [2]; WCH92): 8 µg/mL
MBC (S. pneumoniae isolates [2]; WCH137): 4 µg/mL
MBC (S. pneumoniae isolates [2]; WCH158): 16 µg/mL
MBC (S. pneumoniae isolates [2]; WCH184): 16 µg/mL
MBC (S. pneumoniae isolates [2]; WCH211): 4 µg/mL
MBC (S. pneumoniae isolates [2]; WU2): 64 µg/mL
MBC50 (S. pneumoniae isolates [2]; all S. pneumoniae isolates): 16 µg/mL
MBC90 (S. pneumoniae isolates [2]; all S. pneumoniae isolates): 32 µg/mL
MBC Range (S. pneumoniae isolates [2]; all S. pneumoniae isolates): 4 to 64 µg/mL
MBC (S. pneumoniae isolates [2]; [7]): 64 µg/mL
Visual analysis of solubility ([3]; Diluent CAMHB): Transparent
Visual analysis of solubility ([3]; Diluent DMSO): Precipitate
Visual analysis of solubility ([3]; Diluent PBS): Precipitate
Visual analysis of solubility ([3]; Media 4% LHB:CAMHB): Transparent
Visual analysis of solubility ([3]; Media 10% horse serum-supplemented broth): Transparent
MIC (S. pneumoniae isolates [4]; A66.1): 8 µg/mL
MIC (S. pneumoniae isolates [4]; D39): 2 µg/mL
Relative MIC with media type for D39 (S. pneumoniae isolates [4]; D39, 4% LHB:CAMHB): 4 µg/mL
Relative MIC with media type for D39 (S. pneumoniae isolates [4]; D39, 10% horse serum-supplemented broth): 32 µg/mL
MIC (S. pneumoniae isolates [4]; EF3030): 16 µg/mL
MIC (S. pneumoniae isolates [4]; L82016): 8 µg/mL
MIC (S. pneumoniae isolates [4]; P9): 4 µg/mL
MIC (S. pneumoniae isolates [4]; P21): 4 µg/mL
MIC of D39, stored pre-prepared micro-titer trays (S. pneumoniae isolates [4]; Storage condition 4° C.): 4 µg/mL
MIC of D39, stored pre-prepared micro-titer trays (S. pneumoniae isolates [4]; Storage condition −2° C.): 4 µg/mL
MIC (S. pneumoniae isolates [4]; TIGR4): 8 µg/mL
MIC (S. pneumoniae isolates [4]; WCH16): 32 µg/mL
MIC (S. pneumoniae isolates [4]; WCH43): 2 µg/mL
MIC (S. pneumoniae isolates [4]; WCH46): 32 µg/mL
MIC (S. pneumoniae isolates [4]; WCH57): 4 µg/mL
MIC (S. pneumoniae isolates [4]; WCH77): 8 µg/mL
MIC (S. pneumoniae isolates [4]; WCH86): 4 µg/mL
MIC (S. pneumoniae isolates [4]; WCH89): 4 µg/mL
MIC (S. pneumoniae isolates [4]; WCH92): 8 µg/mL
MIC (S. pneumoniae isolates [4]; WCH137): 2 µg/mL
MIC (S. pneumoniae isolates [4]; WCH158): 16 µg/mL
MIC (S. pneumoniae isolates [4]; WCH184): 16 µg/mL
MIC (S. pneumoniae isolates [4]; WCH211): 2 µg/mL
MIC (S. pneumoniae isolates [4]; WU2): 16 µg/mL
MIC50 (S. pneumoniae isolates [4]; all S. pneumoniae isolates): 8 µg/mL
MIC90 (S. pneumoniae isolates [4]; all S. pneumoniae isolates): 32 µg/mL
MIC range (S. pneumoniae isolates [4]; all S. pneumoniae isolates): 2 to 32 µg/mL
MIC (S. pneumoniae isolates [4]; isolate A66.1, Table 22, CAMHB diluent for NCL062): Confluent
MIC (S. pneumoniae isolates [4]; isolate D39, Table 22, CAMHB diluent for NCL062): Confluent
MIC (S. pneumoniae isolates [4]; isolate P21, Table 22, CAMHB diluent for NCL062): Confluent
MIC (S. pneumoniae isolates [4]; isolate WCH57, Table 22, CAMHB diluent for NCL062): Confluent
MIC (S. pneumoniae isolates [4]; [7]): Confluent
MIC (S. pneumoniae isolates [4]; isolate WU-2, Table 22, CAMHB diluent for NCL062): Confluent
MIC (μg/ml) at 24 hours, E. coli (Escherichia coli): >128 µg/mL
constant bactericidal concentration (S. pneumoniae strain D39; between 24 and 48 h): 4 µg/mL
immediate MBC (S. pneumoniae strain D39; within the first 10 min of administration): 8 µg/mL
MIC (μg/ml) at 24 hours, P. aeruginosa (Pseudomonas aeruginosa): >128 µg/mL

C/C=C/C/C=C/CCC(=O)[C@H]1O[C@H]1C(N)=O [cerulenin, Cerulenin, reference compound]
inhibition of lipid synthesis [5]: 72%

Polymyxin B [reference compound]
maximal ATP release [6]: approximately 0.34 μM
